Measurements as given in patent US11427548B2 (Arvinas Operations, Inc., priority 2015, dated 2022).
Read-outs that look alike come from different tables or passages of the source.

Biological target: T1, Androgen Receptor (Homo sapiens, UniProt P10275)
T1 construct: endogenous in cells; host or cells: VCaP cells
T1 sequence (P10275 1-920): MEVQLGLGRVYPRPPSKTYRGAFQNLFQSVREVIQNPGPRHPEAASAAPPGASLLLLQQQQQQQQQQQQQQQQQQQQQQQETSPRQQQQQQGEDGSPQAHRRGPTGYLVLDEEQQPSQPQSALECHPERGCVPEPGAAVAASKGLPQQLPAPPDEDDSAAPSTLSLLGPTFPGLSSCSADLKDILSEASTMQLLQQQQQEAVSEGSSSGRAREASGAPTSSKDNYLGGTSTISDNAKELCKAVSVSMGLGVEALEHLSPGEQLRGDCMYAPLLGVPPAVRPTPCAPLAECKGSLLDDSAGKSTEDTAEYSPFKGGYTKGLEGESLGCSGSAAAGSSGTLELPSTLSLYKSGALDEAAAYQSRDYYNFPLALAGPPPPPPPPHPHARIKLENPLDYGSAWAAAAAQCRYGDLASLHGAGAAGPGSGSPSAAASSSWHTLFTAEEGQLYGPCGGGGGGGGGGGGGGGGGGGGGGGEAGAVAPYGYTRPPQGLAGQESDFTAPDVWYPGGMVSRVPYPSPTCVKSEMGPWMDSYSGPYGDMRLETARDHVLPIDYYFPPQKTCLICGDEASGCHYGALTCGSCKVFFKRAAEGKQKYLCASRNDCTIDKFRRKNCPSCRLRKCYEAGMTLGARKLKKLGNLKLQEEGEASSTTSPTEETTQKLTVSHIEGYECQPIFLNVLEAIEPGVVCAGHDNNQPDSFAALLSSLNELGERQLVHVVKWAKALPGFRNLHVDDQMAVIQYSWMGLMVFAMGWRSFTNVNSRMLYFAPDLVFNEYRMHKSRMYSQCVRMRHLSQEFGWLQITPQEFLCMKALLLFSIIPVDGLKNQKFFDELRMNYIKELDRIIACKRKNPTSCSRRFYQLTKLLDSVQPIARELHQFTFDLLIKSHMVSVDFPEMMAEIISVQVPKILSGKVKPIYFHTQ
Assay: Androgen Receptor ELISA assay (PathScan AR ELISA) in VCaP cells: AR degradation, Dmax and DC50
Type: cell-based
Settings: for DC50: read-out: VCaP DC50; for Dmax: VCaP, read-out: VCaP Dmax (%)
Procedure: 1. Androgen Receptor ELISA Assay.
The protocols used with VCaP cells are described below. The androgen receptor ELISA assay was performed using PathScan AR ELISA (Cell Signaling Catalog #12850) according to the following assay steps:
VCaP cells are seeded at 30,000 cells/well at a volume of 200 μL/well in VCaP assay medium [Phenol red free RPMI (Gibco Cat #11835-030); 5% Charcoal Stripped (Dextran treated) FBS (Omega Scientific, Cat #FB-04); Pen/Strep Life Technologies (Gibco Cat #: 10378-016); 0.1 nM R1881 (Sigma, Cat #R0908) is added upon the start of the assay, not during initial plating of the cells) in Corning 3904 plates. The cells are grown for a minimum of 3 days.
First, cells are dosed with compounds diluted in 0.1% DMSO—use a polypropylene plate according to the following protocol: (1)(i) make 1000× stock plate in DMSO; (ii) 20 mM stock diluted 1/6.7 with DMSO (5 μL+28.3 μL DMSO)=3 mM into row H; (iii) perform serial dilutions in ½ log doses (10 μL of PROTAC+20 μL DMSO) from row H towards row B. Reserve row A for DMSO; (iv) 7 doses total (final concentration in this 1000× plate will be 3 mM, 1 mM, 333 μM, 111 μM, etc). (2)(i) Make 10× stock plate in media; (ii) transfer 2.5 μL of the 1000× stock to a new 10× stock plate (use 12 channel pipet, start at A (DMSO control) work thru H. When 247.5 μL of media is added to this plate, it will serve as a 10× stock; (iii) make media+1 nM R1881 for making 10× stock plate; (iv) add 247.5 μL of media with 1 nM R1881 to each well of the 10× stock plate, mix.
Then 22 μL of 10× stock is added to cells and incubated for 24 h. 1× Cell Signaling Cell lysis buffer is made (Catalogue #9803; comes with the kit)—prepare for 50 μL/well. Keep on ice. Media is aspirated, and 50 μL 1× cell lysis buffer/well is added. The cells are placed on ice for 10 minutes. The solution is mixed and transferred to PCR plate, and centrifuged at 4C for 10 minutes at 4000 rpm.
5 μL is transferred to fresh plate (use immediately or freeze −80 C); 115 μL ELISA Dilutant is added (0.15 ug/ml-0.075 ug/ml; comes with the PathScan ELISA).
Add 100 μL/well AR Elisa; cover and shake, 37 C for 2 hrs; dump, tap, wash 4×200 μL ELISA wash buffer; add 100 μL/well mouse AR detection Ab; cover and shake, 37 C for 1 hr; dump, tap, wash 4×200 μL ELISA wash buffer; add 100 μL/well anti-mouse—HRP conjugated Ab (comes with the kit); cover and shake, 37 C for 30 min; allow TMB reagent to come to room temperature; dump, tap, wash 4×200 μL Elisa wash buffer; tap; add 100 μL TMB, shake 5 min—while watching color. Add the stop reagent when light blue color develops. Add 100 μL Stop solution; shake and read at 450 nm.

[1] = highest percentage of Androgen Receptor degradation observed, VCaP cells (Table 32)
[2] = concentration that caused 50% Androgen Receptor degradation, VCaP cells (Table 32)

DC50 (VCaP cells, Table 36)	Dmax (VCaP cells, Table 36)	DC50 (VCaP cells, Table 35)	Dmax (VCaP cells, Table 35)	Compound	further results
–	–	< 50 nM	> 71%	Cc1ncsc1-c1ccc(CNC(=O)[C@@H]2C[C@@H](O)CN2C(=O)[C@@H](NC(=O)COC[C@H]2C[C@H](Oc3ccc(C(=O)N[C@H]4C(C)(C)[C@H](Oc5ccc(C#N)c(Cl)c5)C4(C)C)cc3)C2)C(C)(C)C)cc1 [Example 564]	–
–	–	< 50 nM	26 to 50%	CC(C)(C)[C@H](NC(=O)COCCCCCNc1ccc(C(=O)N[C@H]2C(C)(C)[C@H](Oc3ccc(C#N)c(Cl)c3)C2(C)C)cc1)C(=O)N1C[C@H](O)C[C@H]1C(=O)NCc1ccc(-c2ccncn2)cc1 [Example 533]	–
–	–	< 50 nM	51 to 70%	CC(C)(C)[C@H](NC(=O)COCCCCCNc1ccc(C(=O)N[C@H]2C(C)(C)[C@H](Oc3ccc(C#N)c(Cl)c3)C2(C)C)cc1)C(=O)N1C[C@H](O)C[C@H]1C(=O)NCc1ccc(-c2cncnc2)cc1 [Example 534]	–
–	–	< 50 nM	51 to 70%	Cc1ncsc1-c1ccc(CNC(=O)[C@@H]2C[C@@H](O)CN2C(=O)[C@@H](NC(=O)COC[C@@H](O)[C@H](O)COc2ccc(C(=O)N[C@H]3C(C)(C)[C@H](Oc4ccc(C#N)c(Cl)c4)C3(C)C)cc2)C(C)(C)C)cc1 [Example 563]	–
> 501 nM	< 25%	–	–	CC(C)(C)[C@H](NC(=O)COCCN1CCN(c2ccc(C(=O)N[C@H]3C(C)(C)[C@H](Oc4ccc(C#N)c(Cl)c4)C3(C)C)cn2)CC1)C(=O)N1C[C@H](O)C[C@H]1C(=O)NCc1ccc(C2CCCC2)cc1 [Example 759, N-((1r,3r)-3-(3-chloro-4-cyanophenoxy)-2,2,4,4-tetramethylcyclobutyl)-6-(4-(2-(2-(((S)-1-((2S,4R)-2-((4-cyclopentylbenzyl)car-bamoyl)-4-hydroxypyrrolidin-1-yl)-3,3-dimethyl-1-oxobutan-2-yl)amino)-2-oxoethoxy)ethyl)pipera-zin-1-yl)nicotinamide]	–
< 50 nM	> 71%	–	–	Cc1ncsc1-c1ccc([C@H](C)NC(=O)[C@@H]2C[C@@H](O)CN2C(=O)[C@@H](NC(=O)CO[C@H](C)CN2CCN(c3ccc(C(=O)N[C@H]4C(C)(C)[C@H](Oc5ccc(C#N)c(Cl)c5)C4(C)C)cc3)CC2)C(C)(C)C)cc1 [Example 634, (2S,4R)-1-((S)-2-(2-(((R)-1-(4-(4-(((1r,3R)-3-(3-chloro-4-cyanophenoxy)-2,2,4,4-tetramethylcyclobutyl)carbamoyl)phenyl)piper-azin-1-yl)propan-2-yl)oxy)acetamido)-3,3-dimethylbutanoyl)-4-hydroxy-N-((S)-1-(4-(4-methylthiazol-5-yl)phenyl)ethyl)pyrrolidine-2-carboxamide]	–
–	–	> 501 nM	< 25%	Cc1ncsc1-c1ccc([C@H](C)NC(=O)[C@H]2C[C@@H](O)CN2C(=O)[C@@H](NC(=O)COCCCCCNc2ccc(C(=O)N[C@H]3C(C)(C)[C@H](Oc4ccc(C#N)c(Cl)c4)C3(C)C)cc2)C(C)(C)C)cc1 [Example 458]	–

Second part, the molecule before the results:

Compound	DC50 (VCaP cells, Table 36)	Dmax (VCaP cells, Table 36)	DC50 (VCaP cells, Table 35)	Dmax (VCaP cells, Table 35)	further results
Cc1ncsc1-c1ccc([C@H](C)NC(=O)C2C[C@@H](O)CN2C(=O)C(NC(=O)CN2CCN(CCN3CCN(c4ccc(C(=O)N[C@H]5C(C)(C)[C@H](Oc6ccc(C#N)c(Cl)c6)C5(C)C)cn4)CC3)CC2)C(C)(C)C)cc1 (stereo partly drawn) [Example 789, N-((1r,3r)-3-(3-chloro-4-cyanophenoxy)-2,2,4,4-tetramethylcyclobutyl)-6-(4-(2-(4-(2-(((S)-1-((2S,4R)-4-hydroxy-2-(((S)-1-(4-(4-methylthiazol-5-yl)phenyl)ethyl)carbamoyl)pyrrolidin-1-yl)-3,3-dimethyl-1-oxobutan-2-yl)amino)-2-oxoethyl)piperazin-1-yl)ethyl)piperazin-1-yl)nicotinamide]	< 50 nM	> 71%	–	–	–
Cc1ncoc1-c1ccc(CNC(=O)[C@@H]2C[C@@H](O)CN2C(=O)[C@@H](NC(=O)COCCCCOc2ccc(C(=O)N[C@H]3C(C)(C)[C@H](Oc4ccc(C#N)c(C(F)(F)F)c4)C3(C)C)cc2)C(C)(C)C)cc1 [Example 166, (2S,4R)-1-[(2S)-3,3-dimethyl-2-{2-[4-(4-{[trans-3-[4-cyano-3-(trifluoromethyl)phenoxy]-2,2,4,4-tetramethylcyclobutyl]carbamoyl}phenoxy)butoxy]acetamido}butanoyl]-4-hydroxy-N-{[4-(4-methyl-1,3-oxazol-5-yl)phenyl]methyl}pyrrolidine-2-carboxamide]	–	–	–	–	Dmax [1]: 51 to 70%; DC50 [2]: < 50 nM
Cc1ncoc1-c1ccc(CNC(=O)[C@@H]2C[C@@H](O)CN2C(=O)[C@@H](NC(=O)COCc2ccc(Oc3ccc(C(=O)N[C@H]4C(C)(C)[C@H](Oc5ccc(C#N)c(Cl)c5)C4(C)C)cc3)cc2)C(C)(C)C)cc1 [Example 184, (2S,4R)-1-[(2S)-3,3-dimethyl-2-(2-{[4-(4-{[(1r,3r)-3-(3-chloro-4-cyanophenoxy)-2,2,4,4-tetramethylcyclobutyl]carbamoyl}phenoxy)phenyl]methoxy}acetamido)butanoyl]-4-hydroxy-N-{[4-(4-methyl-1,3-oxazol-5-yl)phenyl]methyl}pyrrolidine-2-carboxamide]	–	–	–	–	Dmax [1]: > 71%; DC50 [2]: < 50 nM
Cc1ncsc1-c1ccc(CNC(=O)[C@@H]2C[C@@H](O)CN2C(=O)[C@@H](NC(=O)COCCN2C[C@H]3C[C@@H]2CN3c2ccc(C(=O)N[C@H]3C(C)(C)[C@H](Oc4ccc(C#N)c(Cl)c4)C3(C)C)cn2)C(C)(C)C)cc1 [Example 669, N-((1r,3R)-3-(3-chloro-4-cyanophenoxy)-2,2,4,4-tetramethylcyclobutyl)-6-((1R,4R)-5-(2-(2-(((S)-1-((2S,4R)-4-hydroxy-2-((4-(4-methylthiazol-5-yl)benzyl)carbamoyl)pyrrolidin-1-yl)-3,3-dimethyl-1-oxobutan-2-yl)amino)-2-oxoethoxy)ethyl)-2,5-diazabicyclo[2.2.1]hept-an-2-yl)nicotinamide]	< 50 nM	51 to 70%	–	–	–
CC(C)(C)[C@H](NC(=O)COCCCOCCCCCOc1ccc(N2C(=S)N(c3ccc(C#N)c(C(F)(F)F)c3)C(=O)C2(C)C)cc1)C(=O)N1C[C@H](O)C[C@H]1C(=O)NCc1ccc(C#N)cc1 [Example 15, (2S,4R)-1-[(2S)-2-[2-(3-{[5-(4-{3-[4-cyano-3-(trifluoromethyl)phenyl]-5,5-dimethyl-4-oxo-2-sulfanylideneimidazolidin-1-yl}phenoxy)pentyl]oxy}propoxy)acetamido]-3,3-dimethylbutanoyl]-N-[(4-cyanophenyl)methyl]-4-hydroxypyrrolidine-2-carboxamide]	–	–	–	–	Dmax: 26 to 50%; DC50 (concentration that caused 50% Androgen Receptor degradation, VCaP cells): < 50 nM
